Assays:
barnyardgrass [1] = experiment: Test C preemergence; format: in vivo, Echinochloa crus-galli; details: for Barnyardgrass plant response rating: preemergence; for Plant response rating, Barnyardgrass: Preemergence, 62 g ai/ha, scale 0 to 100, 0 no effect, 100 complete control
Procedure, shortened: (§1)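 Seeds are planted in blended loam soil and sand and treated preemergence, while seedlings in a peat moss/vermiculite medium receive postemergence sprays at 2 to 18 cm height. All plants stay in the greenhouse for 13 to 15 days before visual comparison with controls on a 0–100 scale.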

wheat, winter = experiment: Test C postemergence; format: in vivo, Triticum aestivum; details: for Wheat plant response rating: 31 g ai/ha; for Wheat plant response rating / Plant response rating, Wheat: scale 0 to 100 (0 no effect, 100 complete control)
Procedure, shortened: as §1

galium = experiment: Test C postemergence; format: in vivo, Galium aparine; details: for Galium plant response rating: 31 g ai/ha; for Galium plant response rating / Plant response rating, Galium: scale 0 to 100 (0 no effect, 100 complete control)
Procedure, shortened: as §1

pigweed [2] = experiment: Test A preemergence; format: in vivo, Amaranthus retroflexus; details: for Pigweed plant response rating (0 to 100 scale): 125 g ai/ha; for Pigweed plant response rating: 500 g ai/ha, 0 to 100 scale where 0 is no effect and 100 is complete control
Procedure, shortened: (§2)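 Compounds in non-phytotoxic solvent with surfactant applied as soil spray preemergence, or postemergence to plants 2-10 cm at one- to two-leaf stage, in loam/sand. After approximately 10 days in greenhouse, injury rated visually versus untreated controls, 0 (no effect) to 100 (complete control).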

yellow nutsedge [3] = experiment: Test C postemergence; format: in vivo, Cyperus esculentus; details: for Nutsedge, Yellow plant response rating: 31 g ai/ha; for Nutsedge, Yellow plant response rating / Plant response rating, Nutsedge, Yellow: scale 0 to 100 (0 no effect, 100 complete control)
Procedure, shortened: as §1

velvetleaf = experiment: Test A postemergence; format: in vivo, Abutilon theophrasti; details: 0 to 100 scale where 0 is no effect and 100 is complete control; for Velvetleaf plant response rating: 125 g ai/ha; for Plant response rating, Velvetleaf: 500 g ai/ha
Procedure, shortened: as §2

pigweed [4] = experiment: Test C preemergence; format: in vivo, Amaranthus retroflexus; details: for Pigweed plant response rating: preemergence; for Plant response rating, Pigweed: Preemergence, 62 g ai/ha, scale 0 to 100, 0 no effect, 100 complete control
Procedure, shortened: as §1

rice = experiment: Test B flooded paddy test; format: in vivo, Oryza sativa; details: Flood, 250 g ai/ha; 0 to 100 scale where 0 is no effect and 100 is complete control
Procedure, shortened: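 Seedlings are raised to two leaves, flooded to a depth of 3 cm and dosed by adding the compound to the floodwater. Water level is kept constant, and plants are scored visually versus controls 13–15 days later (0 = no effect, 100 = complete control).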

giant foxtail [5] = experiment: Test A preemergence; format: in vivo, Setaria faberii; details: for Foxtail, Giant plant response rating (0 to 100 scale): 125 g ai/ha; for Foxtail, Giant plant response rating: 500 g ai/ha, 0 to 100 scale where 0 is no effect and 100 is complete control
Procedure, shortened: as §2

Italian ryegrass = experiment: Test C postemergence; format: in vivo, Lolium multiflorum; details: for Ryegrass, Italian plant response rating: 31 g ai/ha; for Ryegrass, Italian plant response rating / Plant response rating, Ryegrass, Italian: scale 0 to 100 (0 no effect, 100 complete control)
Procedure, shortened: as §1

corn = experiment: Test C postemergence; format: in vivo, Zea mays; details: for Corn plant response rating: 31 g ai/ha; for Corn plant response rating / Plant response rating, Corn: scale 0 to 100 (0 no effect, 100 complete control)
Procedure, shortened: as §1

yellow nutsedge [6] = experiment: Test C preemergence; format: in vivo, Cyperus esculentus; details: for Nutsedge, Yellow plant response rating: preemergence; for Plant response rating, Nutsedge, Yellow: Preemergence, 62 g ai/ha, scale 0 to 100, 0 no effect, 100 complete control
Procedure, shortened: as §1

giant foxtail [7] = experiment: Test C preemergence; format: in vivo, Setaria faberii; details: for Foxtail, Giant plant response rating: preemergence; for Plant response rating, Foxtail, Giant: Preemergence, 62 g ai/ha, scale 0 to 100, 0 no effect, 100 complete control
Procedure, shortened: as §1

kochia = experiment: Test C postemergence; format: in vivo, Kochia scoparia; details: for Kochia plant response rating: 31 g ai/ha; for Kochia plant response rating / Plant response rating, Kochia: scale 0 to 100 (0 no effect, 100 complete control)
Procedure, shortened: as §1

barnyardgrass [8] = experiment: Test C postemergence; format: in vivo, Echinochloa crus-galli; details: for Barnyardgrass plant response rating: 31 g ai/ha, 13 to 15 days; for Barnyardgrass plant response rating / Plant response rating, Barnyardgrass: scale 0 to 100 (0 no effect, 100 complete control)
Procedure, shortened: as §1

[9] = 125 g ai/ha, scale 0 (no effect) to 100 (complete control)
[10] = 250 g ai/ha, scale 0 (no effect) to 100 (complete control)
[11] = postemergence, visual rating, 13 to 15 days
[12] = 125 g ai/ha, postemergence, visual rating
[13] = Postemergence, 62 g ai/ha, 13 to 15 days
[14] = 16 g ai/ha, scale 0 to 100 (0 no effect, 100 complete control)
[15] = 16 g ai/ha, postemergence, 0 is no effect, 100 is complete control

SMILES: N#Cc1cccc(Oc2ncc(Cl)cn2)c1-n1cc(I)cn1 [Compound 204]
- Barnyardgrass plant response rating (barnyardgrass [1]; [9]): 100
- Barnyardgrass plant response rating (barnyardgrass [1]; [10]): 100
- Plant response rating, Barnyardgrass (barnyardgrass [1]): 95
- Wheat plant response rating (wheat, winter; [11]): 5
- Plant response rating, Wheat (wheat, winter; [12]): 10
- Plant response rating (0 to 100), Wheat (wheat, winter; 250 g ai/ha, postemergence): 10
- Plant response rating, Wheat (wheat, winter; [13]): 5
- Galium plant response rating (galium; [11]): 70
- Plant response rating, Galium (galium; [12]): 75
- Plant response rating (0 to 100), Galium (galium; 250 g ai/ha, postemergence): 100
- Plant response rating, Galium (galium; [13]): 75
- Pigweed plant response rating (0 to 100 scale) (pigweed [2]): 100
- Pigweed plant response rating (pigweed [2]): 100
- Nutsedge, Yellow plant response rating (yellow nutsedge [3]; [11]): 0
- Plant response rating, Nutsedge, Yellow (yellow nutsedge [3]; [12]): 0
- Plant response rating (0 to 100), Nutsedge, Yellow (yellow nutsedge [3]; 250 g ai/ha, postemergence): 5
- Plant response rating, Nutsedge, Yellow (yellow nutsedge [3]; [13]): 10
- Velvetleaf plant response rating (velvetleaf): 100
- Plant response rating, Velvetleaf (velvetleaf): 100
- Pigweed plant response rating (pigweed [4]; [9]): 98
- Pigweed plant response rating (pigweed [4]; [10]): 98
- Plant response rating, Pigweed (pigweed [4]): 100
- Plant response rating, Rice (rice): 20
- Foxtail, Giant plant response rating (0 to 100 scale) (giant foxtail [5]): 100
- Foxtail, Giant plant response rating (giant foxtail [5]): 100
- Ryegrass, Italian plant response rating (Italian ryegrass; [11]): 5
- Plant response rating, Ryegrass, Italian (Italian ryegrass; [12]): 10
- Plant response rating (0 to 100), Ryegrass, Italian (Italian ryegrass; 250 g ai/ha, postemergence): 10
- Plant response rating, Ryegrass, Italian (Italian ryegrass; [13]): 5
- Corn plant response rating (corn; [11]): 10
- Plant response rating, Corn (corn; [12]): 20
- Plant response rating (0 to 100), Corn (corn; 250 g ai/ha, postemergence): 20
- Plant response rating, Corn (corn; [13]): 20
- Nutsedge, Yellow plant response rating (yellow nutsedge [6]; [9]): 60
- Nutsedge, Yellow plant response rating (yellow nutsedge [6]; [10]): 60
- Plant response rating, Nutsedge, Yellow (yellow nutsedge [6]): 0
- Foxtail, Giant plant response rating (giant foxtail [7]; [9]): 100
- Foxtail, Giant plant response rating (giant foxtail [7]; [10]): 100
- Plant response rating, Foxtail, Giant (giant foxtail [7]): 98
- Kochia plant response rating (kochia; [11]): 90
- Plant response rating, Kochia (kochia; [12]): 100
- Plant response rating (0 to 100), Kochia (kochia; 250 g ai/ha, postemergence): 100
- Plant response rating, Kochia (kochia; [13]): 100
- Barnyardgrass plant response rating (barnyardgrass [8]; postemergence, visual rating): 5
- Plant response rating, Barnyardgrass (barnyardgrass [8]; [12]): 5
- Plant response rating (0 to 100), Barnyardgrass (barnyardgrass [8]; 250 g ai/ha, postemergence): 35
- Plant response rating, Barnyardgrass (barnyardgrass [8]; Postemergence, 62 g ai/ha): 10

SMILES: N#Cc1cnn(-c2c(Oc3ncc(Cl)cn3)cccc2C(F)F)c1 [Compound 236]
- Barnyardgrass plant response rating (barnyardgrass [1]; [14]): 10
- Barnyardgrass plant response rating (barnyardgrass [1]; [9]): 100
- Plant response rating, Barnyardgrass (barnyardgrass [1]): 98
- Plant response rating (0 to 100), Wheat (wheat, winter; [15]): 0
- Wheat plant response rating (wheat, winter; [11]): 0
- Plant response rating, Wheat (wheat, winter; [12]): 0
- Plant response rating, Wheat (wheat, winter; [13]): 0
- Plant response rating (0 to 100), Galium (galium; [15]): 60
- Galium plant response rating (galium; [11]): 75
- Plant response rating, Galium (galium; [12]): 85
- Plant response rating, Galium (galium; [13]): 80
- Pigweed plant response rating (0 to 100 scale) (pigweed [2]): 100
- Pigweed plant response rating (pigweed [2]): 100
- Plant response rating (0 to 100), Nutsedge, Yellow (yellow nutsedge [3]; [15]): 0
- Nutsedge, Yellow plant response rating (yellow nutsedge [3]; [11]): 0
- Plant response rating, Nutsedge, Yellow (yellow nutsedge [3]; [12]): 5
- Plant response rating, Nutsedge, Yellow (yellow nutsedge [3]; [13]): 0
- Velvetleaf plant response rating (velvetleaf): 90
- Plant response rating, Velvetleaf (velvetleaf): 100
- Pigweed plant response rating (pigweed [4]; [14]): 100
- Pigweed plant response rating (pigweed [4]; [9]): 100
- Plant response rating, Pigweed (pigweed [4]): 100
- Plant response rating, Rice (rice): 0
- Foxtail, Giant plant response rating (0 to 100 scale) (giant foxtail [5]): 100
- Foxtail, Giant plant response rating (giant foxtail [5]): 100
- Plant response rating (0 to 100), Ryegrass, Italian (Italian ryegrass; [15]): 0
- Ryegrass, Italian plant response rating (Italian ryegrass; [11]): 0
- Plant response rating, Ryegrass, Italian (Italian ryegrass; [12]): 0
- Plant response rating, Ryegrass, Italian (Italian ryegrass; [13]): 0
- Plant response rating (0 to 100), Corn (corn; [15]): 5
- Corn plant response rating (corn; [11]): 5
- Plant response rating, Corn (corn; [12]): 10
- Plant response rating, Corn (corn; [13]): 5
- Nutsedge, Yellow plant response rating (yellow nutsedge [6]; [14]): 0
- Nutsedge, Yellow plant response rating (yellow nutsedge [6]; [9]): 75
- Plant response rating, Nutsedge, Yellow (yellow nutsedge [6]): 60
- Foxtail, Giant plant response rating (giant foxtail [7]; [14]): 35
- Foxtail, Giant plant response rating (giant foxtail [7]; [9]): 100
- Plant response rating, Foxtail, Giant (giant foxtail [7]): 100
- Plant response rating (0 to 100), Kochia (kochia; [15]): 30
- Kochia plant response rating (kochia; [11]): 80
- Plant response rating, Kochia (kochia; [12]): 90
- Plant response rating, Kochia (kochia; [13]): 85
- Plant response rating (0 to 100), Barnyardgrass (barnyardgrass [8]; [15]): 5
- Barnyardgrass plant response rating (barnyardgrass [8]; postemergence, visual rating): 5
- Plant response rating, Barnyardgrass (barnyardgrass [8]; [12]): 10
- Plant response rating, Barnyardgrass (barnyardgrass [8]; Postemergence, 62 g ai/ha): 5

From patent US9695155B2, “Herbicidal substituted pyrimidinyloxy benzene compounds” (E. I. DU PONT DE NEMOURS AND COMPANY, priority 2013, dated 2017)
